Laboratory results: patent US20250290117A1, “MOLECULAR PHENOTYPIC ANTIMICROBIAL SUSCEPTIBILITY TESTING” (priority 2024, published 2025)

Tests used:
E. coli = test: Molecular phenotypic antimicrobial susceptibility test with direct PCR (no extraction DNA purification step); format: cell-based, Escherichia coli; details: specimen with <10,000 cells/mL, direct PCR after 16 hours of incubation
Protocol: Detection of Molecular Phenotypic Antimicrobial Susceptibility. Disclosed herein are the methods for the detection of phenotypic antimicrobial susceptibility via molecular methods. The present invention describes how a specimen 100 with a known microbial load is incubated and then exposed to a panel of antimicrobial agents to determine sensitivity (prevention of growth) or resistance (allowance of growth) to the specific antimicrobial agents tested utilizing molecular methods.
Sample Collection. Specimens 100 are collected from patients using sterile collection processes that are employed in routine clinical care. Specimens are transported to the testing facility in boric acid preservative. Specimens 100 are subsequently divided into a first sample 104 and a second sample 108.
Preparation of the Specimens for Testing. The specimens 100 are put through a pathogen identification process using PCR technology (e.g., using the first sample 104). The process for pathogen isolation includes steps of harvesting the pathogen (e.g., via centrifugation), isolating pathogen DNA via a DNA isolation and/or purification kit, and performing PCR on the pathogen DNA via PCR components (e.g., primers, enzymes, buffers) as would be known to the skilled artisan. Simultaneously, an additional aliquot of the same specimen (e.g., the second sample 108) is placed with liquid culture media and incubated for 4-6 hours. This aliquot is used for antimicrobial susceptibility testing if indicated based on the pathogen detection results. After pathogen identification is completed and if more than 10,000 cells/mL of bacteria (e.g., eligible bacteria) are detected in the source specimen, the second sample 108 then enters the antimicrobial susceptibility phase of testing. Specimens 100 with lower pathogen loads could also be utilized in the antibiotic susceptibility phase of testing with or without a longer incubation period.
Preparation of Antimicrobial Susceptibility Testing Plates. Antimicrobial solutions are prepared at known concentrations. The specific antimicrobials and their concentrations are selected based on the pathogen of interest and the described antimicrobial resistance breakpoints for that specimen pathogen and antimicrobial combination. These antimicrobials have been selected based on those commonly utilized by healthcare providers in routine clinical care for the specific type of suspected infection. The number and types of antimicrobials utilized can be customized based on the infection source, pathogen detected, patient-specific factors such as allergies or other health conditions (e.g., chronic kidney disease or concurrent medication use), or healthcare provider preferences such as antimicrobial availability or cost.
The antimicrobial solutions are prepared in liquid culture media (such as Muller Hinton Broth) to achieve the desired antimicrobial concentration and are then stored at −80° C. until use. For a given specimen, each antimicrobial is tested at a single or multiple antimicrobial concentration(s) which is its established breakpoints for sensitivity. The antimicrobial solutions are prepared and plated out for each specific pathogen. This allows ease of use on the day of testing after defrosting the plate 112. Table 1, which illustrates the results of molecular phenotypic antimicrobial susceptibility testing when more than one organism is present in the source specimen, provides an example of an antimicrobial plate 112 prepared for this purpose. Of note, control wells containing only culture media are present on all plates 112. This allows for evaluation of pathogen load when no antimicrobial is present.
Specimen Exposure to Antimicrobial Agents. The 1 mL aliquot of the specimen 100 previously mixed with culture media and incubated is obtained. Using optical density measurements as a guide, the specimen 100 is diluted to 0.5 McFarland. […]

pathogen of the specimen [1] = test: Molecular phenotypic antimicrobial susceptibility test with direct PCR at various incubation timepoints (Table 7); format: cell-based
Protocol: Detection of Molecular Phenotypic Antimicrobial Susceptibility. Disclosed herein are the methods for the detection of phenotypic antimicrobial susceptibility via molecular methods. The present invention describes how a specimen 100 with a known microbial load is incubated and then exposed to a panel of antimicrobial agents to determine sensitivity (prevention of growth) or resistance (allowance of growth) to the specific antimicrobial agents tested utilizing molecular methods. Sample Collection. Specimens 100 are collected from patients using sterile collection processes that are employed in routine clinical care. Specimens are transported to the testing facility in boric acid preservative. […] The process for pathogen isolation includes steps of harvesting the pathogen (e.g., via centrifugation), isolating pathogen DNA via a DNA isolation and/or purification kit, and performing PCR on the pathogen DNA via PCR components (e.g., primers, enzymes, buffers) as would be known to the skilled artisan. […] This aliquot is used for antimicrobial susceptibility testing if indicated based on the pathogen detection results. […] Specimens 100 with lower pathogen loads could also be utilized in the antibiotic susceptibility phase of testing with or without a longer incubation period. […] Antimicrobial solutions are prepared at known concentrations. The specific antimicrobials and their concentrations are selected based on the pathogen of interest and the described antimicrobial resistance breakpoints for that specimen pathogen and antimicrobial combination. These antimicrobials have been selected based on those commonly utilized by healthcare providers in routine clinical care for the specific type of suspected infection. The number and types of antimicrobials utilized can be customized based on the infection source, pathogen detected, patient-specific factors such as allergies or other health conditions (e.g., chronic kidney disease or concurrent medication use), or healthcare provider preferences such as antimicrobial availability or cost. The antimicrobial solutions are prepared in liquid culture media (such as Muller Hinton Broth) to achieve the desired antimicrobial concentration and are then stored at −80° C. until use. For a given specimen, each antimicrobial is tested at a single or multiple antimicrobial concentration(s) which is its established breakpoints for sensitivity. The antimicrobial solutions are prepared and plated out for each specific pathogen. […] This allows for evaluation of pathogen load when no antimicrobial is present. Specimen Exposure to Antimicrobial Agents. The 1 mL aliquot of the specimen 100 previously mixed with culture media and incubated is obtained. Using optical density measurements as a guide, the specimen 100 is diluted to 0.5 McFarland. […] Antimicrobial exposure plates are typically placed into an incubator for 12-16 hours. […] Nucleic Acid Amplification of Antimicrobial Agent Exposed Pathogens. The antimicrobial exposure plate is removed after the period of incubation. The specimen then undergoes a purification or lysis step. For example, the specimen may undergo a purification step (e.g., magnetic bead-based or other separation protocol to isolate genetic material). In another example, the specimen may undergo a cell lysis step. For example, buffer (e.g., lysis buffer) may be added and incubated in the thermal cycler for preparation for direct PCR. Next, the specimen may undergo a polymerase chain reaction (PCR) testing protocol, whereby a semi-quantitative PCR method is utilized. This may be completed either with or without a specific extraction protocol step. The pathogens can be individually targeted and detected, or a universal genetic sequence can be utilized to detect the antimicrobial susceptibility of the specimen as a whole. The control wells are utilized as a threshold for determining antimicrobial sensitivity or resistance. […] Antimicrobial Susceptibility Result Interpretation.

pathogen of the specimen [2] = test: Traditional culture-based antimicrobial susceptibility test (comparison of Table 7); format: cell-based; details: E. coli isolate 1189
Protocol: Table 7 illustrates the results of an example antimicrobial agent susceptibility test of the current application versus a traditional culture-based antimicrobial agent susceptibility test at multiple incubation timepoints, in accordance with one or more embodiments of the disclosure. These specimens were tested with direct PCR (e.g., no extraction DNA purification step prior to PCR). […] Result Reporting to Healthcare Providers. The results from the antimicrobial exposure are reported to the ordering healthcare provider. This information can be utilized by the healthcare provider when selecting an antimicrobial regimen for their individual patient based on these individual specimen results and patient specific factors. […] The current standard of care for antimicrobial susceptibility testing involves the growth, isolation, and exposure of pathogens to antimicrobials. This traditional culture and sensitivity process can take multiple days to obtain results, limiting the ability of healthcare providers to receive timely results to make actionable changes in patient care or management. Healthcare providers desire a method to obtain antimicrobial susceptibility results with quicker turn-around-time. This application discloses a molecular-based phenotypic antimicrobial susceptibility method which involves pathogen exposure to a panel of antimicrobial agents at their specified minimum inhibitory concentration breakpoints for sensitivity. This method allows for more timely antimicrobial susceptibility results.

Molecule | Molecular Antimicrobial Susceptibility Result (E. coli; E. coli #1 - WDCM 00090 - 6.2×E3) | Ct at Sensitive Breakpoint (E. coli; E. coli #1 - WDCM 00090 - 6.2×E3, Ct at control 13.787) | Molecular Antimicrobial Susceptibility Result (E. coli; E. coli #2 - WDCM 00090 - 6.2×E3) | Ct at Sensitive Breakpoint (E. coli; E. coli #2 - WDCM 00090 - 6.2×E3, Ct at control 13.46) | Molecular Antimicrobial Susceptibility Result (pathogen of the specimen [1]; E. coli isolate 1189, antibiotic incubation time 4 hours) | Ct at Sensitive Breakpoint (pathogen of the specimen [1]; E. coli isolate 1189, antibiotic incubation time 4 hours, control average Ct […]) | Molecular Antimicrobial Susceptibility Result (pathogen of the specimen [1]; E. coli isolate 1189, antibiotic incubation time 6 hours) | Ct at Sensitive Breakpoint (pathogen of the specimen [1]; E. coli isolate 1189, antibiotic incubation time 6 hours, control average Ct 16.992) | Molecular Antimicrobial Susceptibility Result (pathogen of the specimen [1]; E. coli isolate 1189, antibiotic incubation time 8 hours) | Ct at Sensitive Breakpoint (pathogen of the specimen [1]; E. coli isolate 1189, antibiotic incubation time 8 hours, control average Ct […]) | Molecular Antimicrobial Susceptibility Result (pathogen of the specimen [1]; E. coli isolate 1189, antibiotic incubation time 10 hours) | Ct at Sensitive Breakpoint (pathogen of the specimen [1]; E. coli isolate 1189, antibiotic incubation time 10 hours, control average Ct 15.995) | Molecular Antimicrobial Susceptibility Result (pathogen of the specimen [1]; E. coli isolate 1189, antibiotic incubation time 14 hours) | Ct at Sensitive Breakpoint (pathogen of the specimen [1]; E. coli isolate 1189, antibiotic incubation time 14 hours, control average Ct 15.826) | Molecular Antimicrobial Susceptibility Result (pathogen of the specimen [1]; E. coli isolate 1189, antibiotic incubation time 16 hours) | Ct at Sensitive Breakpoint (pathogen of the specimen [1]; E. coli isolate 1189, antibiotic incubation time 16 hours, control average Ct 14.880) | Traditional Culture Result (pathogen of the specimen [2])
C[C@H]1c2cccc(O)c2C(=O)C2=C(O)[C@]3(O)C(=O)C(C(N)=O)=C(O)[C@@H](N(C)C)[C@@H]3[C@@H](O)[C@@H]21 [Doxycycline] | Sensitive (Antimicrobial wells with pathogen load detected below the control wells (typically >2 cycle thresholds later) may be reported as Sensitive) | 25.83 | Sensitive (Antimicrobial wells with pathogen load detected below the control wells (typically >2 cycle thresholds later) may be reported as Sensitive) | 27.02 |  |  |  |  |  |  |  |  |  |  |  |  | 
Amoxicillin/Clavulanate |  |  |  |  | Resistant | 16.799 | Resistant | 17.105 | Resistant | 17.430 | Resistant | 15.606 | Resistant | 14.226 | Resistant | 14.825 | Resistant
